Source: patent publication US11918550B2, “Sensitization of cancer cells to differentiation therapy with mitochondrial uncoupler niclosamide ethanolamine” (The Board of Trustees of the Leland Stanford Junior …, priority 2020, dated 2024)

Key:
[1] = tested on: RA-resistant neuroblastoma cells; assay: Clonogenic assay; type: cell-based; conditions: 1 μM NEN with 1 μM RA, two weeks
Procedure: For the clonogenic assay, 500 cells were plated in 60 mm dishes. After 24 h, cells were treated with indicated conditions. After 14 days, the cells were fixed by 50% methanol in PBS for 15 minutes and stained by crystal violet staining solution (0.5% crystal violet and 25% methanol in PBS). The quantification was done by using countPHICS.

[2] = tested on: RA-resistant neuroblastoma cells; assay: Cell proliferation (cell counting), NEN with RA; type: cell-based; conditions: NEN combined with RA, 3 days
Procedure: (§1) Cell proliferation and clonogenic assay. 2×10^4 cells were seeded in 12 well-plate and allowed to attached overnight. […] After treatment, cells were counted using hemocytometer.

[3] = tested on: SK-N-BE(2) cells; assay: 1-13C-glutamine tracing of reductive carboxylation under normoxia or hypoxia; type: cell-based; conditions: 1 μM NEN
Procedure: Metabolic analysis. For the metabolomics and isotope tracing analysis in vitro, cells were washed with cold PBS, lysed in 80% Ultra LC-MS acetonitrile on ice for 15 minutes, centrifuged at 20,000 g for 10 minutes at 4° C., and supernatant was subjected to mass spectrometry analysis. For the metabolomics analysis in vivo, 10-20 mg tissue were cut off on ice, rinsed if necessary to remove blood, and place in a 2 ml round-bottom cryovial. The tissues were homogenized by 3 times 10 s on/off bursts homogenization in 1 ml 80% methanol on dry ice. Transfer the homogenate to an Eppendorf tube and keep on liquid nitrogen while processing the remaining samples. Incubated all the samples in −80° C. for 30 minutes. After incubation, vortexed the samples for 5 seconds. Then centrifuged the samples at 20,000 g for 10 minutes at 4° C., and supernatant was subjected to mass spectrometry analysis. Resuspend the remaining cellular pellet in 100 ul protein lysis buffer and determine the protein concentration. Then calculate the total protein content per sample.
Liquid chromatography was performed using an Agilent 1290 Infinity LC system (Agilent, Santa Clara, US) coupled to a Q-TOF 6545 mass spectrometer (Agilent, Santa Clara, US). […]

[4] = tested on: N-Myc; assay: N-Myc mRNA and protein levels (qPCR, western blot); type: cell-based; conditions: SK-N-BE(2) cells, 1 μM NEN
Procedure: Protein extraction and immunoblot. Cells were washed with ice-cold PBS buffer (Invitrogen, 20012050) and lysed with harvest buffer (10 mM Hepes pH 7.9, 50 mM NaCl, 500 mM sucrose, 0.1 mM EDTA and 0.5% Trition X-100) supplemented with 1% Halt inhibitors (Thermo Scientific™, 78443) for 10 minutes. Cell lysate was centrifuged at 3000 rpm for 3 min at 4° C. The supernatant containing cytosolic proteins was transferred to a different tube. The pellet containing nuclear proteins was dissolved with nuclear lysis buffer (10 mM Hepes pH 7.9, 0.5M NaCl, 0.1 mM EDTA, 0.1 mM EGTA and 0.1% NP40) supplemented with 1% Halt inhibitors (Thermo Scientific™, 78443) for 5 minutes at 4° C. Then the solution was sonicated at 4° C. for 6 cycles (1 cycle=30 s sonication and 30 s cooldown with “High” energy intensity) using a Bioruptor® Plus sonication (Diagenode, UCD-300). After sonication, the solution was centrifuged at 15,000 rpm for 10 minutes. The supernatant was kept as nuclear extraction. Protein concentration was determined by BCA assay (Thermo Scientific, 23227). […] Signals were detected with an ECL kit (Thermo Scientific™, 34577) by using BioRad Universal Hood II. […] Quantitative PCR amplification was performed on the Prism 7900 Sequence Detection System (Applied Biosystems) using Taqman Gene Expression Assays (Applied Biosystems). […]

[5] = tested on: neuroblastoma cells; assay: Cell proliferation (cell counting); type: cell-based; conditions: 1 μM NEN vs DMSO
Procedure: as §1

[6] = tested on: orthotopic neuroblastoma xenograft (SK-N-BE(2) cells); assay: H&E histology and immunohistochemistry of orthotopic tumors; type: in vivo, mice; conditions: diet 2000 ppm NEN vs control

SMILES: O=C(Nc1ccc([N+](=O)[O-])cc1Cl)c1cc(Cl)ccc1O [NEN, 5-chloro-N-(2-chloro-4-nitrophenyl)-2-hydroxybenzamide compound with 2-aminoethanol (1:1)]
- inhibition of clonogenicity, NEN with RA [1]: strong synergistic effect
- RA-dependent proliferation arrest effect [2]: enhanced
- hypoxia-induced reductive carboxylation flux ([3]; hypoxia (0.5% oxygen)): fully repressed
- basal reductive carboxylation flux ([3]; normoxia): reduced
- mRNA level of N-Myc [4]: significantly reduced
- protein level of N-Myc [4]: significantly reduced
- cell proliferation [5]: significantly inhibited
- N-Myc protein expression in xenografts (IHC) [6]: significantly reduced
- enlarged prominent nucleoli in tumor cells (H&E) [6]: much fewer
- β-catenin protein expression in xenografts (IHC) [6]: significantly reduced
